Results published in the supplement of paper PMC4121296.
± gives the standard deviation of the averaged measurements.

Tests used:
Conditions in all cases: exposure: 5-72 hpf
[1] = test system: Danio rerio embryo (fli1:egfp); experiment: heart rate at 72 hpf (beats per minute); higher = faster heart rate
Protocol: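 fli1:egfp zebrafish embryos exposed 5-72 hpf to chemical (0.05-50 µM, 0.1% DMSO) in 384-well plates; heart rate at 72 hpf quantified from stream acquisitions by semi-automated MetaXpress journal (peak counting); only embryos in concentrations passing survival/body-length criteria analyzed.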

[2] = test system: Danio rerio embryo (fli1:egfp); experiment: body length at 72 hpf (µm); higher = longer body (less growth inhibition)
Protocol: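 Transgenic fli1:egfp zebrafish embryos (one per well, 384-well plate) exposed statically from 5 to 72 hpf at 28 °C to chemical (0.05-50 µM, 0.1% DMSO); at 72 hpf anesthetized and imaged on ImageXpress; body length of live, hatched, correctly oriented embryos measured by automated MetaXpress journal. Dead/unhatched/misoriented embryos have no value.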

[3] = test system: Danio rerio embryo (fli1:egfp); experiment: arterial (dorsal aorta) circulation score at 72 hpf (normalized DA-Max (arbitrary units)); higher = more circulation
Protocol: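 fli1:egfp zebrafish embryos exposed 5-72 hpf to chemical (0.05-50 µM, 0.1% DMSO); arterial circulation at 72 hpf quantified from stream acquisitions of the dorsal aorta by FFT-based analysis (DA-Max, normalized dorsal aorta signal); only concentrations passing survival/body-length criteria analyzed.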

[4] = test system: Danio rerio embryo (fli1:egfp); experiment: intersegmental vessel area normalized to body length at 72 hpf (ISV area / body length (normalized units)); higher = more vessel area
Protocol: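 fli1:egfp zebrafish embryos exposed 5-72 hpf to chemical (0.05-50 µM, 0.1% DMSO); intersegmental vessel (ISV) eGFP area quantified by MetaXpress journal at 72 hpf and normalized to body length.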

[5] = test system: Danio rerio embryo (fli1:egfp); experiment: pericardial area at 72 hpf (image area units (not stated)); higher = larger pericardial area (edema)
Protocol: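 fli1:egfp zebrafish embryos exposed 5-72 hpf to chemical (0.05-50 µM, 0.1% DMSO); pericardial area at 72 hpf measured by semi-automated MetaXpress journal (increase indicates edema).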

CCN(Cc1c(F)cccc1Cl)c1c([N+](=O)[O-])cc(C(F)(F)F)cc1[N+](=O)[O-] [Flumetralin]
Conditions	arterial, [3]	body length at 72 hpf, [2]	heart rate at 72 hpf, [1]	intersegmental vessel area normalized, [4]
0.05 µM	16.7 ± 7.2	3020 ± 280	183 ± 26	67.3 ± 23
0.098 µM	16.1 ± 6.6	3080 ± 80	174 ± 12	74.9 ± 25
0.195 µM	16.8 ± 4.8	3050 ± 110	177 ± 19	79.1 ± 26
0.39 µM	15 ± 7.6	3010 ± 98	176 ± 15	72.5 ± 21
0.78 µM	15.4 ± 6.3	2980 ± 95	181 ± 21	76.2 ± 27
1.56 µM	15.1 ± 4.1	2850 ± 140	182 ± 31	84 ± 21
3.125 µM	–	2770 ± 130	–	–
6.25 µM	–	2670 ± 120	–	–
12.5 µM	–	2670 ± 83	–	–
25 µM	–	2670 ± 310	–	–
50 µM	–	2620 ± 100	–	–

N#Cc1c(Cl)c(Cl)c(Cl)c(C#N)c1Cl [Chlorothalonil]
Conditions	arterial, [3]	body length at 72 hpf, [2]	heart rate at 72 hpf, [1]	intersegmental vessel area normalized, [4]	pericardial area at 72 hpf, [5]
0.05 µM	11.6 ± 4.9	2960 ± 87	138 ± 22	70.8 ± 19	17600 ± 6300
0.098 µM	10.8 ± 4.5	2990 ± 100	140 ± 26	78.4 ± 17	24100 ± 13000
0.195 µM	10.3 ± 5.3	2940 ± 150	154 ± 29	75.7 ± 17	23900 ± 12000
0.39 µM	12.3 ± 6.5	2880 ± 100	153 ± 26	80.7 ± 14	22000 ± 7200

CCCCCOC(=O)COc1cc(N2C(=O)C3=C(CCCC3)C2=O)c(F)cc1Cl [Flumiclorac-pentyl]
Conditions	arterial, [3]	body length at 72 hpf, [2]	heart rate at 72 hpf, [1]	intersegmental vessel area normalized, [4]	pericardial area at 72 hpf, [5]
0.05 µM	11.7 ± 3.1	3040 ± 150	166 ± 20	55.7 ± 20	14500 ± 3900
0.098 µM	10.9 ± 4.9	2980 ± 230	159 ± 12	66.5 ± 18	15200 ± 3300
0.195 µM	10.3 ± 3.5	2960 ± 350	166 ± 16	62.8 ± 18	16200 ± 5500
0.39 µM	10.7 ± 5.5	2950 ± 140	175 ± 33	66.4 ± 22	15300 ± 4200
0.78 µM	9.99 ± 4.1	3000 ± 130	170 ± 14	60.7 ± 19	15200 ± 5300
1.56 µM	11.6 ± 3.8	3000 ± 86	178 ± 16	62.7 ± 24	16100 ± 4200
3.125 µM	11 ± 7	2990 ± 110	182 ± 15	61.8 ± 19	17000 ± 5800
6.25 µM	8.2 ± 3.4	2960 ± 340	185 ± 14	65.1 ± 18	16400 ± 4300
12.5 µM	8.36 ± 3.2	3000 ± 130	182 ± 14	69.4 ± 16	17700 ± 4300

C[C@@]1(c2ccc(Oc3ccccc3)cc2)OC(=O)N(Nc2ccccc2)C1=O (racemic) [Famoxadone]
Conditions	arterial, [3]	body length at 72 hpf, [2]	heart rate at 72 hpf, [1]	intersegmental vessel area normalized, [4]	pericardial area at 72 hpf, [5]
0.05 µM	15.7 ± 7	2980 ± 83	172 ± 15	72.5 ± 23	13400 ± 4100
0.098 µM	14.7 ± 7.2	2990 ± 84	180 ± 26	84.9 ± 20	13700 ± 3400
0.195 µM	14.5 ± 4.1	2970 ± 93	188 ± 27	77.8 ± 18	13500 ± 3100
0.39 µM	12.7 ± 3.2	2970 ± 100	177 ± 20	75.4 ± 23	12100 ± 3800
0.78 µM	14.9 ± 5.7	2940 ± 66	160 ± 36	80 ± 22	15500 ± 5200

CCc1nn(C)c(C(=O)NCc2ccc(C(C)(C)C)cc2)c1Cl [Tebufenpyrad]
Conditions	arterial, [3]	body length at 72 hpf, [2]	heart rate at 72 hpf, [1]	intersegmental vessel area normalized, [4]	pericardial area at 72 hpf, [5]
0.05 µM	9.08 ± 3.3	2980 ± 67	155 ± 12	75.7 ± 23	13400 ± 2600
0.098 µM	10.5 ± 4	2960 ± 100	166 ± 32	75.9 ± 21	13600 ± 3200
0.195 µM	10.6 ± 4.2	2960 ± 91	160 ± 22	78.8 ± 16	13000 ± 3000
0.39 µM	11.6 ± 4.6	2990 ± 92	166 ± 27	76.5 ± 20	14800 ± 3400
0.78 µM	14.2 ± 6.5	2950 ± 89	174 ± 38	77 ± 20	16300 ± 6100

CCOC(=O)C(Cl)Cc1cc(-n2nc(C)n(C(F)F)c2=O)c(F)cc1Cl (centres undefined) [Carfentrazone-ethyl]
Conditions	arterial, [3]	body length at 72 hpf, [2]	heart rate at 72 hpf, [1]	intersegmental vessel area normalized, [4]	pericardial area at 72 hpf, [5]
0.05 µM	13.5 ± 3.8	2950 ± 99	186 ± 29	53.3 ± 20	13800 ± 2300
0.098 µM	13.1 ± 4.4	2970 ± 120	172 ± 16	55.6 ± 20	15600 ± 6700
0.195 µM	14.4 ± 5.3	2980 ± 72	187 ± 26	64.4 ± 27	15200 ± 4100
0.39 µM	12.6 ± 5.2	2990 ± 76	190 ± 22	61.5 ± 25	17900 ± 7800
0.78 µM	12.8 ± 5.5	3030 ± 49	194 ± 17	65.4 ± 22	17700 ± 6600
1.56 µM	11.6 ± 3.9	2950 ± 91	186 ± 19	56.7 ± 19	18200 ± 7800
3.125 µM	8.55 ± 5.2	2940 ± 210	190 ± 29	64.7 ± 16	19600 ± 9500
6.25 µM	8.33 ± 3.2	2970 ± 120	184 ± 20	67.9 ± 24	25600 ± 9600
